Assay results: the supplement of paper PMC8671470

Legend:
Settings in all cases: 72 h
BV-173 [1] = system: BV-173
Summary of the method: (§1)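 Each of fifteen myeloid leukaemia cell lines was seeded in RPMI 1640 at a density titrated to its linear growth range. The cells were incubated for 72 h at 37 °C and 5% CO2 with compounds at five tenfold doses from 1 to 10,000 nM, in duplicate. After ATP luminescence was normalised to vehicle and to a positive control at 10 µM, four-parameter log-logistic curves were fitted. These curves gave the IC50.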

HEL [2] = system: HEL
Summary of the method: as §1

HL-60 [3] = system: HL-60
Summary of the method: as §1

K-562 = system: K-562
Summary of the method: as §1

KCL-22 [4] = system: KCL-22
Summary of the method: as §1

KG-1 [5] = system: KG-1
Summary of the method: as §1

KU-812 [6] = system: KU-812
Summary of the method: as §1

LAMA-84 [7] = system: LAMA-84
Summary of the method: as §1

ML-2 [8] = system: ML-2
Summary of the method: as §1

MOLM-13 [9] = system: MOLM-13
Summary of the method: as §1

MV4-11 [10] = system: MV4-11
Summary of the method: as §1

Mono-Mac-6 [11] = system: Mono-Mac-6
Summary of the method: as §1

NOMO-1 [12] = system: NOMO-1
Summary of the method: as §1

SHI-1 [13] = system: SHI-1
Summary of the method: as §1

THP-1 [14] = system: THP-1
Summary of the method: as §1

BV-173 [15] = assay: cell viability (% survival relative to DMSO control, bortezomib = 0%); higher = less cytotoxic
Summary of the method: (§2)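 Fifteen myeloid leukaemia cell lines (10 AML, 5 CML) were seeded at a density titrated to the linear growth range into 384-well plates pre-printed with compounds at 1, 10, 100, 1000 or 10000 nM in duplicate. Plates were incubated for 72 h at 37 °C with 5% CO2. Viability was then read by CellTiter-Glo luminescence. Each value is percent survival averaged over the duplicates, with vehicle set to 100% and a 10 µM positive control to 0%.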

HEL [16] = assay: as above
Summary of the method: as §2

HL-60 [17] = assay: as above
Summary of the method: as §2

KCL-22 [18] = assay: as above
Summary of the method: as §2

KG-1 [19] = assay: as above
Summary of the method: as §2

KU-812 [20] = assay: as above
Summary of the method: as §2

LAMA-84 [21] = assay: as above
Summary of the method: as §2

ML-2 [22] = assay: as above
Summary of the method: as §2

MOLM-13 [23] = assay: as above
Summary of the method: as §2

MV4-11 [24] = assay: as above
Summary of the method: as §2

Mono-Mac-6 [25] = assay: as above
Summary of the method: as §2

NOMO-1 [26] = assay: as above
Summary of the method: as §2

SHI-1 [27] = assay: as above
Summary of the method: as §2

THP-1 [28] = assay: as above
Summary of the method: as §2

HL-60 [29] = assay: area under dose-response curve (viability, 1 nM-10 uM) (fraction (0-1)); higher = more sensitive
Summary of the method: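 A rescreen of the full library used HL-60 cells in RPMI 1640 with 10% FBS on 384-well plates, run in duplicate at five tenfold concentrations (1–10,000 nM). Each screen included DMSO or 100 nM of one of three metabolic inhibitors and ran 72 h at 37 °C, 5% CO2. CellTiter-Glo viability was scaled between DMSO and 10 μM proteasome-inhibitor wells. Any area under the curve comes from four-parameter log-logistic fits with drc and PharmacoGx.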

CC(C)(C#N)c1cc(Cn2cncn2)cc(C(C)(C)C#N)c1 [Anastrozole]
Settings	IC50 (cell viability) [µM]
BV-173 [1]	> 10
HEL [2]	> 10
HL-60 [3]	> 10
K-562	> 10
KCL-22 [4]	> 10
KG-1 [5]	> 10
KU-812 [6]	> 10
LAMA-84 [7]	> 10
ML-2 [8]	> 10
MOLM-13 [9]	> 10
MV4-11 [10]	> 10
Mono-Mac-6 [11]	> 10
NOMO-1 [12]	> 10
SHI-1 [13]	> 10
THP-1 [14]	> 10

Settings	area under dose-response curve, co-treatment: AZD3965 100 nM	area under dose-response curve, co-treatment: DMSO vehicle	area under dose-response curve, co-treatment: GSK2194069 100 nM	area under dose-response curve, co-treatment: pictilisib 100 nM	cell viability, 1 nM [%]	cell viability, 10 nM [%]	cell viability, 100 nM [%]	cell viability, 1000 nM [%]	cell viability, 10000 nM [%]
BV-173 [15]	–	–	–	–	104	89.4	104	95.9	104
HEL [16]	–	–	–	–	92.8	96.5	105	97.1	105
HL-60 [17]	–	–	–	–	103	99.7	89.3	93.8	91.6
HL-60 [29]	< 0.0301	< 0.0301	< 0.0301	< 0.0301	–	–	–	–	–
KCL-22 [18]	–	–	–	–	102	91.6	111	91.7	102
KG-1 [19]	–	–	–	–	98.4	97.2	103	92	93.8
KU-812 [20]	–	–	–	–	86.1	90.6	100	90.5	90
LAMA-84 [21]	–	–	–	–	93.5	97.6	96.3	99.9	97.7
ML-2 [22]	–	–	–	–	106	100	106	90.5	93
MOLM-13 [23]	–	–	–	–	97.4	90.8	88.2	104	103
MV4-11 [24]	–	–	–	–	116	99.4	92.9	87.8	96.4
Mono-Mac-6 [25]	–	–	–	–	103	102	111	102	89.7
NOMO-1 [26]	–	–	–	–	90.6	103	96.4	99.6	102
SHI-1 [27]	–	–	–	–	108	94.5	102	101	103
THP-1 [28]	–	–	–	–	102	93.4	99.8	99.9	96.3

COc1ccc(CNC(=O)Nc2ncc([N+](=O)[O-])s2)cc1
Settings	IC50 (cell viability) [µM]
BV-173 [1]	> 10
HEL [2]	> 10
HL-60 [3]	> 10
K-562	> 10
KCL-22 [4]	> 10
KG-1 [5]	> 10
KU-812 [6]	> 10
LAMA-84 [7]	> 10
ML-2 [8]	> 10
MOLM-13 [9]	> 10
MV4-11 [10]	> 10
Mono-Mac-6 [11]	> 10
NOMO-1 [12]	> 10
SHI-1 [13]	> 10
THP-1 [14]	> 10

Settings	area under dose-response curve, co-treatment: AZD3965 100 nM	area under dose-response curve, co-treatment: DMSO vehicle	area under dose-response curve, co-treatment: GSK2194069 100 nM	area under dose-response curve, co-treatment: pictilisib 100 nM	cell viability, 1 nM [%]	cell viability, 10 nM [%]	cell viability, 100 nM [%]	cell viability, 1000 nM [%]	cell viability, 10000 nM [%]
BV-173 [15]	–	–	–	–	91.7	100	101	97.7	92.7
HEL [16]	–	–	–	–	111	98	113	108	109
HL-60 [17]	–	–	–	–	108	101	115	95.6	104
HL-60 [29]	< 0.0301	< 0.0301	< 0.0301	< 0.0301	–	–	–	–	–
KCL-22 [18]	–	–	–	–	106	97.7	104	102	79.7
KG-1 [19]	–	–	–	–	90.5	146	93.8	94.8	173
KU-812 [20]	–	–	–	–	97.8	107	92.1	96.7	122
LAMA-84 [21]	–	–	–	–	109	105	110	104	108
ML-2 [22]	–	–	–	–	91.8	101	107	105	104
MOLM-13 [23]	–	–	–	–	99.8	108	97.8	102	105
MV4-11 [24]	–	–	–	–	101	99.1	108	94.7	90.6
Mono-Mac-6 [25]	–	–	–	–	96	98	96.7	91.3	70.2
NOMO-1 [26]	–	–	–	–	108	97.1	97.9	106	99.5
SHI-1 [27]	–	–	–	–	105	101	103	106	89.8
THP-1 [28]	–	–	–	–	101	101	104	105	99.1
